The values below come from patent publication US6191145A, “Orally-active nipecotamide glycolamide esters for the treatment of thrombosis disorders” (Ortho-McNeil Pharmaceutical, Inc., priority 1999, dated 2001).

Structures can show the parent of a compound that is named as a salt.

Experiment [1] deals with collagen-induced ex vivo platelet aggregation. Description: Ex vivo dog study: duration of >50% inhibition of collagen-induced ex vivo platelet aggregation. The class given is in vivo. As for the experimental part: Adult mongrel dogs (8-13 kg) were anesthetized with sodium pentobarbital (35 mg/kg, i.v.) and artificially respired. Arterial blood pressure and heart rate were measured using a Millar catheter-tip pressure transducer inserted in a femoral artery. Another Millar transducer was placed in the left ventricle (LV) via a carotid artery to measure LV end diastolic pressure and indices of myocardial contractility. A lead II electrocardiogram was recorded from limb electrodes. Catheters were placed in a femoral artery and vein to sample blood and infuse drugs, respectively. Responses were continuously monitored using a Modular Instruments data aquisition system.
Arterial blood samples (5-9 ml) were withdrawn into tubes containing 3.8% sodium citrate to prepare platelet rich plasma (PRP) and to determine effects on coagulation parameters: prothrombin time (PT) and activated partial thromboplastin time (APTT). Separate blood samples (1.5 ml) were withdrawn in EDTA to determine hematocrit and cell counts (platelets, RBC's and white cells). Template bleeding times were obtained from the buccal surface using a symplate incision devise and Whatman filter paper.
Aggregation of PRP was performed using a BioData aggregometer. Aggregation of whole blood used a Chronolog impedance aggregometer. PT and APTT were determined on either a BioData or ACL 3000+ coagulation analyser. Cells were counted with a Sysmex K-1000.
Compounds were solubilized in a small volume of dimethylformamide (DMF) and diluted with saline to a final concentration of 10% DMF. Compounds were administered by the intravenous route with a Harvard infusion pump. Doses was administered over a 15 min interval at a constant rate of 0.33 ml/min. Data were obtained after each dose and in 30 min intervals following the end of drug administration. Oral doses were administered as aqueous solutions via syringe.

Experiment [2] has as its system Thrombin-induced aggregation of gel-filtered platelets. Description: In vitro inhibition of thrombin-induced gel-filtered platelet aggregation. Format: cell-based. Particulars: Homo sapiens; for inhibition at 50 µM: read-out: Platelet Aggregation % Inh. (50 μM). As for the experimental part:
The percentage of platelet aggregation is calculated as an increase in light transmission of compound-treated platelet concentrate vs. control-treated platelet concentrate. Human blood is obtained from drug free, normal donors into tubes containing 0.13M sodium citrate. Platelet rich plasma (PRP) is collected by centrifugation of whole blood at 200×g for 10 min at 25° C. The PRP (5 mL) is gel filtered through Sepharose 2B (bed volume 50 mL), and the platelet count is adjusted to 2×10^7 platelets per sample. The following constituents are added to a siliconized cuvette: concentrated platelet filtrate and Tyrode's buffer (0.14M NaCl, 0.0027M KCl, 0.012M NaHCO3,0.76 mM Na2 HPO4, 0.0055M glucose, 2 mg/mL BSA and 5.0 mM HEPES @ pH 7.4) in an amount equal to 350 μl, 50 μl of 20 mM calcium and 50 μl of the test compound. Aggregation is monitored in a BIODATA aggregometer for the 3 min following the addition of agonist (thrombin 50 μl of 1 unit/mL).

The target of the next experiment is GPIIb/IIIa (Homo sapiens, UniProt P05106+P08514). Description: In vitro solid phase purified glycoprotein IIb/IIIa binding assay (fibrinogen binding). Particulars: for inhibition at 50 µM: read-out: Fibrinogen Binding % Inh. (50 μM). As for the experimental part: The plate is covered and incubated overnight at 4° C. The GPIIb/IIa solution is discarded and 150 μl of 5% BSA is added and incubated at RT for 1-3 h. The plate is washed extensively with modified Tyrodes buffer. Biotinylated fibrinogen (25 μl/well) at 2×final concentration is added to the wells that contain the test compounds (25 μl/well). The plate is covered and incubated at RT for 2-4 h. Twenty minutes prior to incubation completion, one drop of Reagent A (Vecta Stain ABC Horse Radish Peroxidase kit, Vector Laboratories, Inc.) and one drop Reagent B are added with mixing to 5 mL modified Tyrodes buffer mix and let stand. The ligand solution is discarded and the plate washed (5×200 μl/well) with modified Tyrodes buffer. Vecta Stain HRP-Biotin-Avidin reagent (50 μl/well, as prepared above) is added and incubated at RT for 15 min. The Vecta Stain solution is discarded and the wells washed (5×200 μl/well) with modified Tyrodes buffer. Developing buffer (10 mL of 50 mM citrate/phosphate buffer @ pH 5.3, 6 mg 2-phenylenediamine, 6 μl 30% H2 O2; 50 μl/well) is added and incubated at RT for 3-5 min, and then 2N H2 SO4 (50 μl/well) is added. The absorbance is read at 490 nm.

The subject of experiment [3] is thrombin-induced platelet aggregation. Particulars: L. Alig, J. Med. Chem. 1992, 35, 4393; read-out: IC50 against in vitro thrombin-induced platelet aggregation; cited from earlier work.

GPIIb/IIIa, sequence (P08514 32-887 limits assumed): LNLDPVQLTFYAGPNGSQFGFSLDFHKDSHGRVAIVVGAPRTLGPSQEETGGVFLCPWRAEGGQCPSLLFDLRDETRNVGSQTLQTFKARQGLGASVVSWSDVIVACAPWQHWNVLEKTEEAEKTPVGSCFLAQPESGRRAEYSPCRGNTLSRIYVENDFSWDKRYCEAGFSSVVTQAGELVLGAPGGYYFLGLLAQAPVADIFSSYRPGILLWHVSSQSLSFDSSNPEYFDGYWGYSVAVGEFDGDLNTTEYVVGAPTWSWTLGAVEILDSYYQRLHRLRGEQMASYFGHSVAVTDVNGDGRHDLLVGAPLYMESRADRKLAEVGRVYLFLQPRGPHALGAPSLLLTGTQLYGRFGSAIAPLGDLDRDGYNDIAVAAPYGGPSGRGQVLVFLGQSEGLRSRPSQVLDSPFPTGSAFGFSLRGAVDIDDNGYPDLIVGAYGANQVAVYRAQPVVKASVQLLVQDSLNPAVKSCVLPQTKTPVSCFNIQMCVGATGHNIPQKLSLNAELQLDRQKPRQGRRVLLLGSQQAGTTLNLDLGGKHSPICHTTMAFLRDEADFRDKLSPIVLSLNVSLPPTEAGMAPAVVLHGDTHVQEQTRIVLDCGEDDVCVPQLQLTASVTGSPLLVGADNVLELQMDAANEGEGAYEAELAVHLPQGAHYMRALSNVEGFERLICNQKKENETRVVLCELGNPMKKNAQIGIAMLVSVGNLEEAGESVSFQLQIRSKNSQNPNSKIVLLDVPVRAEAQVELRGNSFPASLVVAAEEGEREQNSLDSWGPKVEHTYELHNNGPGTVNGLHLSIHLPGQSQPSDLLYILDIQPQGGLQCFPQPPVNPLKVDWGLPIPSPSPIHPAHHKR
GPIIb/IIIa, sequence (P08514 891-1039 limits assumed): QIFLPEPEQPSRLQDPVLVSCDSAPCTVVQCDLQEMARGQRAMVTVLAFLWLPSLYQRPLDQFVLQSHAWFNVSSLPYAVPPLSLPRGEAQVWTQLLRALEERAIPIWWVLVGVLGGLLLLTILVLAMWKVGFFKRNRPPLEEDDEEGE
GPIIb/IIIa, sequence (P05106 27-788): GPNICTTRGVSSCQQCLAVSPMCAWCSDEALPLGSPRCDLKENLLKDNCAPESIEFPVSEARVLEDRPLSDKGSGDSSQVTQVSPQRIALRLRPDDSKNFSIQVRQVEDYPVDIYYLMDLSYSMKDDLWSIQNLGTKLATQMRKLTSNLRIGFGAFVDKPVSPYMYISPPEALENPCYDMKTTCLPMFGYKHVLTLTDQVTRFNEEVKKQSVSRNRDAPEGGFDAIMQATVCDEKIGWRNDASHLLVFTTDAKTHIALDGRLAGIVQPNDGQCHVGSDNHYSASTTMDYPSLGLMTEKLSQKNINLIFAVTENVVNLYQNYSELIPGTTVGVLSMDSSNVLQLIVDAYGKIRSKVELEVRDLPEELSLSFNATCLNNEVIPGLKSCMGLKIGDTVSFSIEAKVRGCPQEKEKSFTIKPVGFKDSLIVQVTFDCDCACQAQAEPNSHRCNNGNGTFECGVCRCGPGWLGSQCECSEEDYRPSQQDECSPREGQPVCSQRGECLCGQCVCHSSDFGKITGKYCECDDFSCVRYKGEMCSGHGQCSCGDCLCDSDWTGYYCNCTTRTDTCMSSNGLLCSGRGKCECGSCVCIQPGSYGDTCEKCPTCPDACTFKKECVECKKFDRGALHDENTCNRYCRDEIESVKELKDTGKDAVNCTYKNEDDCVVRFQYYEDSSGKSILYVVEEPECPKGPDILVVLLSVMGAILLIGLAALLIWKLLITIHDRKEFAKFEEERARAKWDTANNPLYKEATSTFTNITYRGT

As to `CCN(CC)C(=O)COC(=O)[C@H](CNC(=O)[C@@H]1CCCN(C(=O)/C=C/C2CCNCC2)C1)NC(=O)OCc1ccccc1` [Compound 5, N-3-(4-Piperidinepropenoyl)-R-(-)nipecotyl-[(S)-2-benzyloxycarbonylamino-3-amino]propionic acid 2-(Diethylamino)-2-oxoethyl ester.HCl], the “Duration of >50% inhibition of collagen-induced ex vivo platelet aggregation, intravenous dosing” value (shortened to “Duration of >50% inhibition … intravenous dosing”) in experiment [1] (0.1 mpk) is 60 min. Besides, in experiment [1] (1 mpk), the “Duration of >50% inhibition of collagen-induced ex vivo platelet aggregation, oral dosing” value (“Duration of >50% inhibition … oral dosing” for short) was > 240 min. In experiment [2], the IC50 (in general, the concentration that inhibits the measured activity by half) amounted to 270 nM and the inhibition at 50 µM worked out at 100%. At GPIIb/IIIa, the IC50 was 9.7 nM and the inhibition at 50 µM was 100%.
For the compound `CCN(CC)C(=O)COC(=O)C[C@H](NC(=O)[C@@H]1CCCN(C(=O)CCC2CCNCC2)C1)c1ccc2c(c1)OCO2` [Compound 2], the “Duration of >50% inhibition … intravenous dosing” value in experiment [1] (1.0 mpk) was 120 min. In addition, the “Duration of >50% inhibition … oral dosing” value in experiment [1] (3 mpk) was 150 min. In experiment [2], the IC50 worked out at 1100 nM and the inhibition at 50 µM is 100%. At GPIIb/IIIa, the IC50 is 5 nM and the inhibition at 50 µM came out at 100%.
Turning to `CN(CC(=O)c1ccc(OCC(=O)O)c(OCC(=O)O)c1)C(=O)c1ccc(C(=N)N)cc1` [Ro-438857], the IC50 in experiment [3] was 94 nM.
For the compound `CCN(CC)C(=O)COC(=O)[C@H](CNC(=O)[C@@H]1CCCN(C(=O)CCC2CCNCC2)C1)NC(=O)OCc1ccccc1` [Compound 4, N-3-(4-Piperidinepropionyl)-R-(-)nipecotyl-[(S)-2-benzyloxycarbonylamino-3-amino]propionic acid 2-(Diethylamino)-2-oxoethyl ester.HCl], the “Duration of >50% inhibition … intravenous dosing” value in experiment [1] (0.1 mpk) was found to be 60 min. Moreover, the “Duration of >50% inhibition … oral dosing” value in experiment [1] (3 mpk) is > 240 min. In experiment [2], 290 nM corresponded to half-maximal inhibition (IC50) and the inhibition at 50 µM came out at 100%. For the same compound, on GPIIb/IIIa, the IC50 is 2 nM and the inhibition at 50 µM was 100%.
With `O=C(N[C@@H](CNC(=O)[C@@H]1CCCN(C(=O)CCC2CCNCC2)C1)C(=O)O)OCc1ccccc1` [carboxylic acid congener, reference compound], in experiment [1] (3 mpk), the “Duration of >50% inhibition … oral dosing” value is 180 min.
With `CCN(CC)C(=O)COC(=O)C[C@H](NC(=O)[C@@H]1CCCN(C(=O)CCC2CCNCC2)C1)c1cncc(Br)c1` [Compound 3], the “Duration of >50% inhibition … oral dosing” value in experiment [1] (3 mpk) is listed as 90 min. In addition, in experiment [2], 190 nM corresponded to half-maximal inhibition (IC50) and the inhibition at 50 µM worked out at 100%. Also, at GPIIb/IIIa, the IC50 worked out at 0.9 nM and the inhibition at 50 µM was 100%.
Turning to `O=C(N[C@@H](CNC(=O)[C@@H]1CCCN(C(=O)/C=C/C2CCNCC2)C1)C(=O)OCC(=O)N1CCCCC1)OCc1ccccc1` [Compound 6, N-3-(4-Piperidinepropenoyl)-R-(-)nipecotyl-[(S)-2-benzyloxycarbonylamino-3-amino]propionic acid 2-(Piperidino)-2-oxoethyl ester.HCl], the “Duration of >50% inhibition … oral dosing” value in experiment [1] (1 mpk) was determined as 150 min. Further, in experiment [2], the IC50 came out at 510 nM and the inhibition at 50 µM is 100%. In addition, on GPIIb/IIIa, the IC50 worked out at 2.5 nM and the inhibition at 50 µM was determined as 100%.
Take `CCN(CC)C(=O)COC(=O)C[C@H](NC(=O)[C@@H]1CCCN(C(=O)CCC2CCNCC2)C1)c1cccnc1` [Compound 1, N-3-(4-Piperidinepropionyl)-R-(-)-nipecotyl-[(S)-3-amino-3-(3-pyridyl)]propionic acid 2-(Diethylamino)-2-oxoethyl ester.2HCl]: the “Duration of >50% inhibition … intravenous dosing” value in experiment [1] (0.3 mpk) turned out to be 60 min. Moreover, the “Duration of >50% inhibition … oral dosing” value in experiment [1] (3 mpk) is on record as > 180 min. Moreover, in experiment [2], the IC50 is 140 nM and the inhibition at 50 µM turned out to be 100%. In addition, on GPIIb/IIIa, the IC50 was 0.7 nM and the inhibition at 50 µM stood at 100%.
